From US8546429B2, “1,2,3-trisubstituted aryl and heteroaryl derivatives as modulators of metabolism and the prophylaxis and treatment of disorders related thereto” (Arena Pharmaceuticals, Inc., priority 2003, dated 2013)

System: Male Sprague Dawley rats
Test: Oral glucose tolerance test (oGTT) in rats
Format: in vivo, rat
Settings: mean of six rats, 10 mg/kg p.o., dextrose 2 g/kg oral challenge
Procedure: Male Sprague Dawley rats weighing approximately 200 g-250 g were fasted for 15 hours and randomly grouped (n=6) to receive a RUP3 agonist (Compounds A78, A88 or A118) at 3, 10 or 30 mg/kg. Compounds were delivered orally via a gavage needle (p.o., volume 3 ml/kg). At time 0, levels of blood glucose were assessed using a glucometer (Elite XL, Bayer), and rats were administered either vehicle (20% hydroxypropyl-beta-cyclodextrin) or test compound. Thirty minutes after administration of test compound, levels of blood glucose were again assessed, and rats were administered dextrose orally at a dose of 2 g/kg. Blood glucose measurements were then taken 30 min, 60 min, and 120 min after this time.

Row | Compound | % inhibition of glucose excursion
1 | CC(C)OC(=O)N1CCC(Oc2ncnc(Nc3ccc(S(C)(=O)=O)cc3F)c2C#N)CC1 [Compound A78, 4-[5-Cyano-6-(2-fluoro-4-methanesulfonyl-phenylamino)-pyrimidin-4-yloxy]-piperidine-1-carboxylic acid isopropyl ester] | 39%, (10)

Same assay, conditions: mean of six rats, 30 mg/kg p.o., dextrose 2 g/kg oral challenge

Row | Compound | % inhibition of glucose excursion
2 | Cc1c(OC2CCN(C(=O)OC(C)C)CC2)ccnc1Nc1ccc(S(C)(=O)=O)cc1F [Compound A118, 4-[2-(2-Fluoro-4-methanesulfonyl-phenylamino)-3-methyl-pyridin-4-yloxy]-piperidine-1-carboxylic acid isopropyl ester] | 43%, (30)
3 | Cc1c(Nc2cc(F)c(C#N)cc2F)ncnc1OC1CCN(C(=O)OC(C)C)CC1 [Compound A88, 4-[6-(4-Cyano-2,5-difluoro-phenylamino)-5-methyl-pyrimidin-4-yloxy]-piperidine-1-carboxylic acid isopropyl ester] | 38%, (30)

Same assay, conditions: rats, p.o., oGTT

Row | Compound | effect on blood glucose after challenge with glucose
4 | Cc1c(OC2CCN(C(=O)OC(C)C)CC2)ccnc1Nc1ccc(S(C)(=O)=O)cc1F [Compound A118, 4-[2-(2-Fluoro-4-methanesulfonyl-phenylamino)-3-methyl-pyridin-4-yloxy]-piperidine-1-carboxylic acid isopropyl ester] | lowered blood glucose
5 | CC(C)OC(=O)N1CCC(Oc2ncnc(Nc3ccc(S(C)(=O)=O)cc3F)c2C#N)CC1 [Compound A78, 4-[5-Cyano-6-(2-fluoro-4-methanesulfonyl-phenylamino)-pyrimidin-4-yloxy]-piperidine-1-carboxylic acid isopropyl ester] | lowered blood glucose
6 | Cc1c(Nc2cc(F)c(C#N)cc2F)ncnc1OC1CCN(C(=O)OC(C)C)CC1 [Compound A88, 4-[6-(4-Cyano-2,5-difluoro-phenylamino)-5-methyl-pyrimidin-4-yloxy]-piperidine-1-carboxylic acid isopropyl ester] | lowered blood glucose

Biological target: T1, RUP3 (Homo sapiens, UniProt Q8TDV5)
T1 construct: expressed in transfected cells; host or cells: melanophores, electroporated
T1 sequence (Q8TDV5 1-335): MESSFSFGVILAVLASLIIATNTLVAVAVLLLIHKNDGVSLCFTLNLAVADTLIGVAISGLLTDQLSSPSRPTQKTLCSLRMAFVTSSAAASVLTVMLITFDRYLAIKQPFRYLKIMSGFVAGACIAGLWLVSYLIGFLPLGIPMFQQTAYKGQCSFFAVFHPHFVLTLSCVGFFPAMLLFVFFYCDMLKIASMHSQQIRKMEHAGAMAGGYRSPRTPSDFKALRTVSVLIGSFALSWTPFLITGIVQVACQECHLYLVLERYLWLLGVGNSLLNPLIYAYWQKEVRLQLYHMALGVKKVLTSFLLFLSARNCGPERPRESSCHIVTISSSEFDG
Test: RUP3 dose responses in melanophores
Format: cell-based
Settings: melanophores transfected with RUP3 expression vector; Table 8
Procedure: Melanophores are maintained in culture as reported by Potenza, M. N. and Lerner, M. R., in Pigment Cell Research, Vol. 5, 372-378, 1992 and transfected with the RUP3 expression vector (pCMV) using electroporation. Following electroporation, the transfected cells are plated into 96 well plates for the assay. The cells are then allowed to grow for 48 hours in order to both recover from the electroporation procedure and attain maximal receptor expression levels.
On the assay day, the growth medium on the cells is replaced with serum-free buffer containing 10 nM melatonin. The melatonin acts via an endogenous Gi-coupled GPCR in the melanophores to lower intracellular cAMP levels. In response to lowered cAMP levels, the melanophores translocate their pigment to the center of the cell. The net effect of this is a significant decrease in the absorbance reading of the cell monolayer in the well, measured at […].
After a 1-hour incubation in melatonin, the cells become completely pigment-aggregated. At this point a baseline absorbance reading is collected. Serial dilutions of test compounds are then added to the plate and compounds that stimulate RUP3 produce increases in intracellular cAMP levels. In response to these increased cAMP levels, the melanophores translocate their pigment back into the cell periphery. After one hour, stimulated cells are fully pigment-dispersed. The cell monolayer in the dispersed state absorbs much more light in the 600-650 nm range. The measured increase in absorbance compared to the baseline reading allows one to quantitate the degree of receptor stimulation and plot a dose-response curve.
The compounds in the above examples were screened using the melanophore assay.

Row | EC50 [nM] | Compound
7 | 28.3 | Cc1c(Oc2ccc(CCn3ccnc3)cc2F)ncnc1OC1CCN(C(=O)OC(C)C)CC1 [Compound C168, 4-{6-[2-Fluoro-4-(2-imidazol-1-yl-ethyl)-phenoxy]-5-methyl-pyrimidin-4-yloxy}-piperidine-1-carboxylic acid isopropyl ester]
8 | 300 | CC(C)(C)C(=O)N1CCC(Nc2ncnc(Nc3ccc(S(C)(=O)=O)cc3)c2[N+](=O)[O-])CC1 [Compound B4, 1-{4-[6-(4-Methanesulfonyl-phenylamino)-5-nitro-pyrimidin-4-ylamino]-piperidin-1-yl}-2,2-dimethyl-propan-1-one]
9 | 76.5 | CS(=O)(=O)c1ccc(Nc2ncnc(OC3CCN(S(C)(=O)=O)CC3)c2[N+](=O)[O-])cc1 [Compound A27, (4-Methanesulfonyl-phenyl)-[6-(1-methanesulfonyl-piperidin-4-yloxy)-5-nitro-pyrimidin-4-yl]-amine]
10 | 16.9 | CC(C)OC(=O)N1CCC(Oc2ncnc(Nc3ccc(S(C)(=O)=O)cc3)c2C#N)CC1 [Compound A39, 4-[5-Cyano-6-(4-methanesulfonyl-phenylamino)-pyrimidin-4-yloxy]-piperidine-1-carboxylic acid isopropyl ester]
11 | 52 | Cc1nc(Cl)ccc1Nc1ncnc(OC2CCN(C(=O)OC(C)C)CC2)c1C [Compound A90, 4-[6-(6-Chloro-2-methyl-pyridin-3-ylamino)-5-methyl-pyrimidin-4-yloxy]-piperidine-1-carboxylic acid isopropyl ester]
12 | 242 | CC(C)(C)OC(=O)N1CCC(CCOc2ncnc(Nc3ccc(S(C)(=O)=O)cc3)c2[N+](=O)[O-])CC1 [Compound A14, 4-{2-[6-(4-Methanesulfonyl-phenylamino)-5-nitro-pyrimidin-4-yloxy]-ethyl}-piperidine-1-carboxylic acid tert-butyl ester]
13 | 43.5 | Cc1nc(C)c(S(=O)(=O)N2CCC(Oc3ncnc(Nc4ccc(S(C)(=O)=O)cc4)c3[N+](=O)[O-])CC2)s1 [Compound A32, {6-[1-(2,4-Dimethyl-thiazole-5-sulfonyl)-piperidin-4-yloxy]-5-nitro-pyrimidin-4-yl}-(4-methanesulfonyl-phenyl)-amine]
14 | 86 | CC(C)(C)C(=O)CN1CCC(Oc2ncnc(Nc3ccc(S(C)(=O)=O)cc3)c2[N+](=O)[O-])CC1 [Compound A11, 1-{4-[6-(4-Methanesulfonyl-phenylamino)-5-nitro-pyrimidin-4-yloxy]-piperidin-1-yl}-3,3-dimethyl-butan-2-one]
15 | 185 | CS(=O)(=O)c1ccc(Nc2ncnc(OC3CCN(C(=O)c4cccnc4)CC3)c2[N+](=O)[O-])cc1 [Compound A24, {4-[6-(4-Methanesulfonyl-phenylamino)-5-nitro-pyrimidin-4-yloxy]-piperidin-1-yl}-pyridin-3-yl-methanone]

Biological target: T2, RUP3 (Mesocricetus auratus, UniProt A0A1U8CD06)
T2 construct: host or cells: HIT-T15 hamster insulin-producing cells
T2 sequence (A0A1U8CD06 1-334): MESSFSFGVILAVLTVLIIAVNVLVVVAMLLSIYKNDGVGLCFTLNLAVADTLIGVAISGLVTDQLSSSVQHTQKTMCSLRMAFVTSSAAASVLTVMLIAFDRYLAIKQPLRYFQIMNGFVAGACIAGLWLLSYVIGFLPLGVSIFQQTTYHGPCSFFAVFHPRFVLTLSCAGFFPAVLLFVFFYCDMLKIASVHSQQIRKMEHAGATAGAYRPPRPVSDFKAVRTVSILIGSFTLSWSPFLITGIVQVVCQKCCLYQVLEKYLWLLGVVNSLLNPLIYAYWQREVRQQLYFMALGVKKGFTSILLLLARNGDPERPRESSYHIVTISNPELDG
Test: Stimulation of cAMP in HIT-T15 cells (cAMP Flashplate Assay)
Format: cell-based, hamster
Settings: Table 6
Procedure: HIT-T15 (ATCC CRL#1777) is an immortalized hamster insulin-producing cell line. These cells express RUP3 and therefore can be used to assess the ability of RUP3 ligands to stimulate or inhibit cAMP accumulation via its endogenously expressed receptor. In this assay, cells are grown to 80% confluence and then distributed into a 96-well Flashplate (50,000 cells/well) for detection of cAMP via a “cAMP Flashplate Assay” (NEN, Cat #SMP004). Briefly, cells are placed into anti-cAMP antibody-coated wells that contain either vehicle, the test ligand(s) at a concentration of interest, or 1 uM forskolin. The latter is a direct activator of adenylyl cyclase and serves as a positive control for stimulation of cAMP in HIT-T15 cells. All conditions are tested in triplicate. After a 1 hour incubation to allow for stimulation of cAMP, a Detection Mix containing ^125I-cAMP is added to each well and the plate is allowed to incubate for another 1 hour. The wells are then aspirated to remove unbound ^125I-cAMP. Bound ^125I-cAMP is detected using a Wallac Microbeta Counter. The amount of cAMP in each sample is determined by comparison to a standard curve, obtained by placing known concentrations of cAMP in some wells on the plate.
A number of the compounds disclosed herein were screened using the above described assay.

Row | EC50 [nM] | Compound
16 | 20 | CC(C)(C)OC(=O)N1CCC(Oc2ncnc(Nc3ccc(S(C)(=O)=O)cc3)c2[N+](=O)[O-])CC1 [Compound A1, 4-[6-(4-Methanesulfonyl-phenylamino)-5-nitro-pyrimidin-4-yloxy]-piperidine-1-carboxylic acid tert-butyl ester]
17 | 59 | CC(C)(C)OC(=O)N1CCC(Oc2ncnc(Nc3ccc(S(C)(=O)=O)cc3)c2C#N)CC1 [Compound A35, 4-[5-Cyano-6-(4-methanesulfonyl-phenylamino)-pyrimidin-4-yloxy]-piperidine-1-carboxylic acid tert-butyl ester]
18 | 27 | CC(C)(C)OC(=O)N1CCC(Oc2ncnc(Nc3ccc(S(C)(=O)=O)cc3F)c2[N+](=O)[O-])CC1 [Compound A34, 4-[6-(2-Fluoro-4-methanesulfonyl-phenylamino)-5-nitro-pyrimidin-4-yloxy]-piperidine-1-carboxylic acid tert-butyl ester]
